# Experimental data from the NIST ThermoML archive (doi:10.1016/j.tca.2012.03.027).
# Numbers after ± are expanded uncertainties.
# Conditions: Crystal 2; DTA
row,Triple point temperature [K],SMILES
1,362 ± 4,"CC12CCC(CC1=O)C2(C)C (configuration not stated) [1,7,7-trimethylbicyclo[2.2.1]-2-heptanone]"
2,367 ± 3,CC1(C)[C@@H]2CC[C@@]1(C)C(=O)C2 [d-camphor]
